Common to all, as to type: biochemical
In one test the target is PIM-1 (Homo sapiens, UniProt P11309). Briefly: Enzyme PIM-1 Assay ([33P]ATP incorporation into PIM2tide, filter plate). As to conditions: averaged IC50; 35 μM ATP, 7.5 μM PIM2tide, 0.25 nM PIM-1, 60 min at 22° C. How it is done: (§1) The assay for the determination of PIM-1 activity is based on the incorporation of [^33P]PO4 from [γ-^33P]ATP into PIM2tide substrate and capture of the radiolabeled peptide onto a Whatman P81 (phosphocellulose) filter plate. The amount of radiolabeled product is then measured by liquid scintillation counting. The final buffer conditions were as follows: 20 mM K^+MOPS, pH 7.4, 10 mM MgCl2, 0.005% Tween-20, 1 mM DTT. Assay mixtures contained 35 μM [γ-^33P]ATP (20 μCi/mL), 7.5 μM PIM2tide and 0.25 nM PIM-1 in a total volume of 50 μL. Incubations were carried out for 60 min at 22° C. and quenched with 75 μL of 200 mM H3PO4, filtered through a Whatman P81 plate and washed (1×200 μL and 5×100 μL) with 200 mM H3PO4. Fifty μL of liquid scintillation cocktail were then added per well, and the plate was counted for 30 s/well using a TopCount NXT.
Chain of PIM-1 (P11309 whole entry, species assumed): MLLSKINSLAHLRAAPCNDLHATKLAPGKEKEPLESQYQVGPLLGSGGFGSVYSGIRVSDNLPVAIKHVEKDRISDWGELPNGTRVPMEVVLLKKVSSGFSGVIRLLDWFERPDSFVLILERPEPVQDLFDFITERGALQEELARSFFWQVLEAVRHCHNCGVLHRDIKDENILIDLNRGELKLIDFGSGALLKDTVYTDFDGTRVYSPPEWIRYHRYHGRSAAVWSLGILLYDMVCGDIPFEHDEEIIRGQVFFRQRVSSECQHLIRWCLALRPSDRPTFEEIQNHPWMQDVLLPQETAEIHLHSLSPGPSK
(§2) Compounds were prepared at 50× the final concentration in DMSO by conducting 3-fold serial dilutions from a 500-μM intermediate dilution to give a 10-point dosing curve having a high dose of 10 μM. One-μL aliquots of these were then transferred to the assay mixtures above to give a final concentration of DMSO of 2%. A standard or reference compound was typically included on each assay plate to validate that plate. For each plate, percent of control (POC) values were calculated for each well. IC50 values were estimated from the POC values using a standard 4-parameter logistic model. The IC50 is defined as the concentration of inhibitor at which the POC equals 50 for the fitted curve.

For test [1], the target named is T1, GST-tagged recombinant full-length human Pim-2 (Homo sapiens, UniProt Q9P1W9).
T1 construct: GST-tagged recombinant full-length human Pim-2; GST
T1 sequence (Q9P1W9 whole entry): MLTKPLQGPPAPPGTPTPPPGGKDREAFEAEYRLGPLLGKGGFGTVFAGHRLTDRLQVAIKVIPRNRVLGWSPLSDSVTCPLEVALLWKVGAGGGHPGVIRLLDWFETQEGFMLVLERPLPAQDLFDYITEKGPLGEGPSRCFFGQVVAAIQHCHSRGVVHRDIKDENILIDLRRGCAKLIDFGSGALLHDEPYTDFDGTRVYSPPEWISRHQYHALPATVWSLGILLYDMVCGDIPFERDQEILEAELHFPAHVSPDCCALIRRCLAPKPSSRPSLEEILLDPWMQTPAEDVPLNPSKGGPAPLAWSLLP
Briefly: PIM-2 Assay (as Example A). The following applies: averaged IC50; 4 μM ATP, 1.0 μM PIM2tide, 1.5 nM Pim-2. On the procedure: as §1, §2
Assay was performed as described in Example A, using 4 μM [γ-^33P]ATP (20 μCi/mL), 1.0 μM PIM2tide and 1.5 nM GST-tagged recombinant full-length human Pim-2 in place of PIM-1.

A further test deals with recombinant rat PIM-3 (Rattus norvegicus, UniProt O70444). Briefly: PIM-3 Assay (as Example A). As to conditions: averaged IC50; 30 μM ATP, 3.75 μM PIM2tide, 0.5 nM PIM-3. On the procedure: as §1, §2
Assay was performed as described in Example A, using 30 μM [γ-^33P]ATP (20 μCi/mL), 3.75 μM PIM2tide and 0.5 nM recombinant rat PIM-3 in place of PIM-1.

Counter-ions that a name gives are not always drawn.

As to `N[C@H]1CCN([C@@H](c2ccc3nnc(-c4ccc5cccc(OCC6CC6)c5n4)n3c2)C(F)(F)F)C1` (single isomer, unassigned) [Example 10, dihydrochloride], the IC50 against PIM-1 came out at 1.84 nM; in test [1], 306 nM; at recombinant rat PIM-3, 12 nM.
Taken in the same sequence, the figures for `N[C@H]1CCN([C@H](c2ccc3nnc(-c4ccc5cccc(OCC6CC6)c5n4)n3c2)C(F)(F)F)C1` (single isomer, unassigned) [Example 11, dihydrochloride] were 0.2 nM, 75 nM and 1.1 nM.
Taken in the same sequence, the figures for `N[C@H]1CCN([C@@H](c2ccc3nnc(-c4ccc5ccc(C6CC6)cc5n4)n3c2)C(F)(F)F)C1` (single isomer, unassigned) [Example 12] were 0.4 nM, 51 nM and 1.1 nM.
In the same order, the values of `N[C@H]1CCN([C@H](c2ccc3nnc(-c4ccc5ccc(C6CC6)cc5n4)n3c2)C(F)(F)F)C1` (single isomer, unassigned) [Example 13] are 0.31 nM, 121 nM and 1 nM.
On to `Cn1cc(-c2ccc3ccc(-c4nnc5ccc([C@H](N6CC[C@H](N)C6)C(F)(F)F)cn45)nc3c2)cn1` (single isomer, unassigned) [Example 14, tri-hydrochloride], for which the IC50 was determined as 0.15 nM against PIM-1, 76 nM in test [1] and 0.4 nM at recombinant rat PIM-3.
Consider `Cn1cc(-c2ccc3ccc(-c4nnc5ccc([C@@H](N6CC[C@H](N)C6)C(F)(F)F)cn45)nc3c2)cn1` (single isomer, unassigned) [Example 15, tri-hydrochloride], for which the IC50 against PIM-1 was determined as 0.09 nM; in test [1], 59 nM; on recombinant rat PIM-3, 0.3 nM.
Taken in the same sequence, the figures for `N[C@@H]1CCN([C@H](c2ccc3nnc(-c4ccc5cccc(OCC6CC6)c5n4)n3c2)C(F)(F)F)C1` (single isomer, unassigned) [Example 22] were 0.25 nM, 145 nM and 2.9 nM.
`N[C@@H]1CCN([C@@H](c2ccc3nnc(-c4ccc5cccc(OCC6CC6)c5n4)n3c2)C(F)(F)F)C1` (single isomer, unassigned) [Example 23]: the IC50 at PIM-1 was 2.85 nM; in test [1], 412 nM; on recombinant rat PIM-3 it was 38 nM.
In the case of `CC(C)(C)OC(=O)N[C@@H]1CCN([C@@H](c2ccc3nnc(-c4ccc5ccc(C(=O)O)cc5n4)n3c2)C(F)(F)F)C1` [Example 85, 2-(6-((S)-1-((R)-3-(tert-butoxycarbonylamino)pyrrolidin-1-yl)-2,2,2-trifluoroethyl)-[1,2,4]triazolo[4,3-a]pyridin-3-yl)quinoline-7-carboxylic acid], the IC50 on recombinant rat PIM-3 amounted to 18 nM.
Turning to `COc1cc(F)cc2ccc(-c3nnc4ccc([C@@H](N5CC[C@H](N)C5)C(F)(F)F)cn34)nc12` [Example 115, (S)-1-((R)-2,2,2-trifluoro-1-(3-(6-fluoro-8-methoxyquinolin-2-yl)-[1,2,4]triazolo[4,3-a]pyridin-6-yl)ethyl)pyrrolidin-3-amine hydrochloride], the figures for the IC50 (against PIM-1; in test [1]) were 0.29 nM and greater than 100 nM, respectively.
In the same order, the values of `CCOc1cc2nc(-c3nnc4ccc([C@@H](N5CC[C@H](N)C5)C(F)(F)F)cn34)ccc2cc1F` [Example 133, (S)-1-((R)-1-(3-(7-ethoxy-6-fluoroquinolin-2-yl)-[1,2,4]triazolo[4,3-a]pyridin-6-yl)-2,2,2-trifluoroethyl)pyrrolidin-3-amine hydrochloride] are 0.16 nM and 77 nM.
For `COCCc1cc2nc(-c3nnc4ccc([C@H](N5CC[C@](C)(N)C5)C(F)(F)F)cn34)ccc2cc1F` [Example 311, (S)-3-methyl-1-((S)-2,2,2-trifluoro-1-(3-(6-fluoro-7-(2-methoxyethyl)quinolin-2-yl)-[1,2,4]triazolo[4,3-a]pyridin-6-yl)ethyl)pyrrolidin-3-amine], the IC50 in test [1] came to 50 nM.

In general, IC50 refers to the midpoint of a concentration-inhibition curve.

The record behind these values is patent publication US8889704B2 (Array BioPharma Inc., priority 2011, dated 2014).
